Results from ChEMBL document CHEMBL1909046, “DrugMatrix in vitro pharmacology data”.

Experiments:
[1] = molecular target: T1, Alpha-1B adrenergic receptor (Rattus norvegicus, UniProt P15823); assay: DRUGMATRIX: Alpha-1B adrenergic receptor radioligand binding (ligand: prazosin); type: cell membranes, Wistar, Liver, Membrane; conditions: Not Active = under 50% inhibition at 10 µM
T1 sequence (P15823 whole entry): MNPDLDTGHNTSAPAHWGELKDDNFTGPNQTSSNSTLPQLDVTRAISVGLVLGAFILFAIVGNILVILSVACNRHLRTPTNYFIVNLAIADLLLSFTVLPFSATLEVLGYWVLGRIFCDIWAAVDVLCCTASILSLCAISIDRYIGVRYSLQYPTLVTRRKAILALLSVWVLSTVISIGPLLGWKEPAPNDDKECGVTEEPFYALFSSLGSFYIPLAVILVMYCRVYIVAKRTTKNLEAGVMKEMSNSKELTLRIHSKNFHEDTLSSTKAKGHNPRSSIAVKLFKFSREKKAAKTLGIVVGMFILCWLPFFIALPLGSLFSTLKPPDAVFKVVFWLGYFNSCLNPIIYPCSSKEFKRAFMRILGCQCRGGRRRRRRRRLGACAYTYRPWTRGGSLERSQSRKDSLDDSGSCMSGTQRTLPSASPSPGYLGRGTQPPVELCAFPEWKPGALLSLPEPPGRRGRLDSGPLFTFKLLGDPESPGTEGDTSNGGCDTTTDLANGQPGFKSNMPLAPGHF

[2] = molecular target: Beta-2 adrenergic receptor (Homo sapiens, UniProt P07550); assay: DRUGMATRIX: Adrenergic beta2 radioligand binding (ligand: [3H] CGP-12177); type: cell membranes, CHO, Membrane; conditions: cho; Not Active = under 50% inhibition at 10 µM
[3] = DRUGMATRIX: Calcium Channel Type L, Benzothiazepine radioligand binding (ligand: [3H] Diltiazem); type: cell membranes, Rattus norvegicus, Wistar, Brain, Membrane; conditions: Not Active = under 50% inhibition at 10 µM
[4] = molecular target: 5-hydroxytryptamine receptor 6 (Homo sapiens, UniProt P50406); type: cell membranes, HeLa, Membrane; note: in other assays of this panel Not Active means under 50% inhibition at 10 µM
[5] = molecular target: T2, Muscarinic acetylcholine receptor M2 (Homo sapiens, UniProt P08172); type: cell membranes, CHO-K1, Membrane; note: in other assays of this panel Not Active means under 50% inhibition at 10 µM
T2 sequence (P08172 whole entry): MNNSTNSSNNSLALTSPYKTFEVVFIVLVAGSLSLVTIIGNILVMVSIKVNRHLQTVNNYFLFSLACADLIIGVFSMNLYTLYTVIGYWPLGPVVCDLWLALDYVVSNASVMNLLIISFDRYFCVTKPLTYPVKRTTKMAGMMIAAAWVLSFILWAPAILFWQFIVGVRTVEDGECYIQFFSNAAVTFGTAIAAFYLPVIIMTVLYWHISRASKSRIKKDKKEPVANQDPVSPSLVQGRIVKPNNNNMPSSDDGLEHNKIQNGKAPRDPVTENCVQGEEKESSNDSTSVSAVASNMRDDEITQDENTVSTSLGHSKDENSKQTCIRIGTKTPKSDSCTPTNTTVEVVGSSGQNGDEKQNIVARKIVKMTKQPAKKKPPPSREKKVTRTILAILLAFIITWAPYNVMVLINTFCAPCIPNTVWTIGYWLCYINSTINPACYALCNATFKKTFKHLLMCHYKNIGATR

[6] = molecular target: Protein phosphatase 3 catalytic subunit alpha (Homo sapiens, UniProt Q08209); design: species or system Escherichia coli;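 note: inhibition of calcineurin (PP2B) enzyme activity, measured with DiFMUP as the substrate; in other assays of this panel Not Active means under 50% inhibition at 10 µM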

Chain of 5-hydroxytryptamine receptor 6 (P50406 whole entry): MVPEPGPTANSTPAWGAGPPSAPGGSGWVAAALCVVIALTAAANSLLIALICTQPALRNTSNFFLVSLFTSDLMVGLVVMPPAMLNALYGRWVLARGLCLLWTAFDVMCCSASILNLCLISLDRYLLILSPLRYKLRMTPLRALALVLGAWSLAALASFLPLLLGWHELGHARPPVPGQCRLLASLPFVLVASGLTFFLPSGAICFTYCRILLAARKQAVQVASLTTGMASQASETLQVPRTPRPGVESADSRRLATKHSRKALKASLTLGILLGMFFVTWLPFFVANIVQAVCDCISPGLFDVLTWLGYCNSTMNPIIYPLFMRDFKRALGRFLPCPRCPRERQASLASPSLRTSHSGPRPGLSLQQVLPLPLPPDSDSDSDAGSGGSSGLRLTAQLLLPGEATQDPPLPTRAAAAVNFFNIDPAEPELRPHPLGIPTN

| Compound | IC50 [1] | IC50 [2] | IC50 [3] | Ki [3] | IC50 ([4]; hela) | IC50 ([5]; cho-k1) | IC50 [6] | Ki [1] | Ki [2] | Ki ([4]; hela) | Ki ([5]; cho-k1) | Ki [6] | IC50 ([4]; read-out: IC50) | Ki ([4]; read-out: Ki) | IC50 ([3]; read-out: IC50) | Ki ([3]; read-out: Ki) | IC50 ([5]; read-out: IC50) | Ki ([5]; read-out: Ki) |
| --- | --- | --- | --- | --- | --- | --- | --- | --- | --- | --- | --- | --- | --- | --- | --- | --- | --- | --- |
| NS(=O)(=O)c1cc(C(=O)O)c(NCc2ccco2)cc1Cl [FUROSEMIDE] | Not Active | Not Active | Not Active | Not Active | Not Active | Not Active | Not Active | – | – | – | – | – | – | – | – | – | – | – |
| O=C1CN(/N=C/c2ccc([N+](=O)[O-])o2)C(=O)N1 [NITROFURANTOIN] | Not Active | Not Active | Not Active | Not Active | Not Active | Not Active | Not Active | – | – | – | – | – | – | – | – | – | – | – |
| CARBOXYMETHYLCELLULOSE | Not Active | Not Active | Not Active | Not Active | Not Active | Not Active | Not Active | Not Active | Not Active | Not Active | Not Active | Not Active | – | – | – | – | – | – |
| c1ccc2sc(SSc3nc4ccccc4s3)nc2c1 [BENZOTHIAZYL DISULFIDE] | Not Active | Not Active | Not Active | Not Active | – | Not Active | Not Active | – | – | – | – | – | 5280 nM | 2450 nM | – | – | – | – |
| CC12CCC(CC1)C(C)(C)O2 [EUCALYPTOL] | Not Active | Not Active | Not Active | Not Active | Not Active | Not Active | Not Active | – | – | – | – | – | – | – | – | – | – | – |
| CC(=O)Nc1ccc2c(c1)Cc1ccccc1-2 [2-ACETYLAMINOFLUORENE] | Not Active | Not Active | Not Active | Not Active | Not Active | Not Active | Not Active | – | – | – | – | – | – | – | – | – | – | – |
| CCN1C[C@]2(COC)[C@H](O)C[C@H](OC)[C@@]34[C@@H]5C[C@@]6(O)[C@H](OC(=O)c7ccccc7)[C@@H]5[C@@](OC(C)=O)([C@@H]([C@H](OC)[C@H]23)[C@@H]14)[C@@H](O)[C@@H]6OC [ACONITINE] | Not Active | Not Active | Not Active | Not Active | Not Active | Not Active | Not Active | – | – | – | – | – | – | – | – | – | – | – |
| CC(N)Cc1c[nH]c2ccc(OCc3cccs3)cc12 (centres undefined) [BW-723C86] | Not Active | Not Active | – | – | – | Not Active | Not Active | – | – | – | – | – | 641 nM | 298 nM | 3470 nM | 3080 nM | – | – |
| C=C(Cl)Cl [1,1-DICHLOROETHENE] | Not Active | Not Active | Not Active | Not Active | Not Active | Not Active | Not Active | – | – | – | – | – | – | – | – | – | – | – |
| Nc1ccc(Cc2ccc(N)cc2)cc1 | Not Active | Not Active | Not Active | Not Active | Not Active | Not Active | Not Active | – | – | – | – | – | – | – | – | – | – | – |
| Nc1nc(N)c2nc(CNc3ccc(C(=O)N[C@@H](CCC(=O)O)C(=O)O)cc3)cnc2n1 [AMINOPTERIN] | Not Active | Not Active | Not Active | Not Active | Not Active | Not Active | Not Active | – | – | – | – | – | – | – | – | – | – | – |
| CCN(CCO)CCCC(C)Nc1ccnc2cc(Cl)ccc12 (centres undefined) [HYDROXYCHLOROQUINE] | Not Active | Not Active | Not Active | Not Active | Not Active | – | Not Active | – | – | – | – | – | – | – | – | – | 2950 nM | 1050 nM |
| COPPER(II) OXIDE | Not Active | Not Active | Not Active | Not Active | Not Active | Not Active | Not Active | Not Active | Not Active | Not Active | Not Active | Not Active | – | – | – | – | – | – |
| CN(CCOc1ccc(C[C@H](Nc2ccccc2C(=O)c2ccccc2)C(=O)O)cc1)c1ccccn1 | Not Active | Not Active | Not Active | Not Active | Not Active | Not Active | Not Active | – | – | – | – | – | – | – | – | – | – | – |
| COc1cc([C@@H]2c3cc4c(cc3[C@H](O)[C@H]3COC(=O)[C@H]23)OCO4)cc(OC)c1OC [PODOFILOX] | Not Active | Not Active | Not Active | Not Active | Not Active | Not Active | Not Active | – | – | – | – | – | – | – | – | – | – | – |
| ClC1=C(Cl)[C@]2(Cl)[C@@H]3[C@@H]4C[C@@H]([C@H]5O[C@@H]45)[C@@H]3[C@@]1(Cl)C2(Cl)Cl [DIELDRIN] | Not Active | Not Active | Not Active | Not Active | Not Active | Not Active | Not Active | – | – | – | – | – | – | – | – | – | – | – |
| CCN1CCN(c2cc3c(cc2F)c(=O)c(C(=O)O)cn3C2CC2)CC1 [ENROFLOXACIN] | Not Active | Not Active | Not Active | Not Active | Not Active | Not Active | Not Active | – | – | – | – | – | – | – | – | – | – | – |
| C[C@H]1C[C@H]2[C@@H]3CCC4=CC(=O)C=C[C@]4(C)[C@@]3(F)[C@@H](O)C[C@]2(C)[C@@]1(O)C(=O)CO [BETAMETHASONE] | Not Active | Not Active | Not Active | Not Active | Not Active | Not Active | Not Active | – | – | – | – | – | – | – | – | – | – | – |
| OC[C@H]1O[C@@H]2O[C@H]3[C@H](O)[C@@H](O)[C@@H](O[C@H]4[C@H](O)[C@@H](O)[C@@H](O[C@H]5[C@H](O)[C@@H](O)[C@@H](O[C@H]6[C@H](O)[C@@H](O)[C@@H](O[C@H]7[C@H](O)[C@@H](O)[C@@H](O[C@H]8[C@H](O)[C@@H](O)[C@@H](O[C@H]1[C@H](O)[C@H]2O)O[C@@H]8CO)O[C@@H]7CO)O[C@@H]6CO)O[C@@H]5CO)O[C@@H]4CO)O[C@@H]3CO [BETADEX] | Not Active | Not Active | Not Active | Not Active | Not Active | Not Active | Not Active | – | – | – | – | – | – | – | – | – | – | – |
| c1ccc(Cn2ccnc2)cc1 | Not Active | Not Active | Not Active | Not Active | Not Active | Not Active | Not Active | – | – | – | – | – | – | – | – | – | – | – |
| C=CCN1CC[C@]23c4c5ccc(O)c4O[C@H]2/C(=N/N=C2\CC[C@@]4(O)[C@H]6Cc7ccc(O)c8c7[C@@]4(CCN6CC=C)[C@H]2O8)CC[C@@]3(O)[C@H]1C5 [NALOXONAZINE] | Not Active | Not Active | Not Active | Not Active | Not Active | Not Active | Not Active | – | – | – | – | – | – | – | – | – | – | – |
| CCCCCCNC(=O)n1cc(F)c(=O)[nH]c1=O [CARMOFUR] | Not Active | Not Active | Not Active | Not Active | Not Active | Not Active | Not Active | – | – | – | – | – | – | – | – | – | – | – |
| OC[C@H]1O[C@@H]2O[C@H]3[C@H](O)[C@@H](O)[C@@H](O[C@H]4[C@H](O)[C@@H](O)[C@@H](O[C@H]5[C@H](O)[C@@H](O)[C@@H](O[C@H]6[C@H](O)[C@@H](O)[C@@H](O[C@H]7[C@H](O)[C@@H](O)[C@@H](O[C@H]1[C@H](O)[C@H]2O)O[C@@H]7CO)O[C@@H]6CO)O[C@@H]5CO)O[C@@H]4CO)O[C@@H]3CO [ALFADEX] | Not Active | Not Active | Not Active | Not Active | Not Active | Not Active | Not Active | – | – | – | – | – | – | – | – | – | – | – |
